Tests used:
[1] = system: novel coronavirus (2019-nCoV); details: cited from earlier work
[2] = system: SARS-CoV-2 clinically isolated strain; details: Vero cells, 24 hours, Yao et al.; cited from earlier work
[3] = Frisk-Holmberg et al., Cui et al.; cited from earlier work
[4] = system: 3D organotypic human bronchial cultures; test: Transepithelial electrical resistance (TEER); details: post 24 h exposure
[5] = Thermal decomposition during thermal aerosolization (LC-HR-MS); details: LC-HR-MS spectra of aerosol sample
[6] = Aerosol particle size distribution (Aerodynamic Particle Sizer); details: thermal aerosolization 200-220° C., 40 mg/mL in propylene glycol
[7] = Transfer rate assessment, liquid formulation to aerosol (Cambridge filter pad, LC-HR-MS); details: 30 puffs collected

In the case of `CCN(CC)CCCC(C)Nc1ccnc2cc(Cl)ccc12` (stereo not shown) [chloroquine], the EC50 ([1]; block of COVID-19 infection in vitro, Wang et al., read-out: half-maximal effective concentration (EC50)) is listed as 1.13 µM, the “in vitro EC50” value ([1]; values from Wang et al.) is listed as 0.362 µg/mL and the “in vitro EC90” value ([1]; values from Wang et al.) is listed as 2.208 µg/mL. The EC50 [2] was 23.9 µM, the “plasma concentration at which no adverse reactions are observed” value [3] was 400 ng/mL and the “warning limit plasma concentration at which 80% of the subjects showed adverse effects” value [3] was 800 ng/mL. The TEER ([4]; 50 puffs) was “very low TEER values for two replicates”, the TEER ([4]; 100 puffs) was “no overall effect” and the “decomposition during thermal aerosolization” value [5] was “no decomposition”. The “median aerodynamic diameter of aerosol particles” value [6] was 1.3 μm and the “amount per puff in aerosol” value ([7]; 40 mg/mL chloroquine liquid formulation) was 149.69 µg.

With `CCN(CCO)CCCC(C)Nc1ccnc2cc(Cl)ccc12` (stereo not shown) [hydroxychloroquine] the “decomposition during thermal aerosolization” value [5] was “no decomposition” and the “amount per puff in aerosol” value ([7]; 100 mg/mL hydroxychloroquine liquid formulation) was 330.32 µg.
